Drawing on ChEMBL document CHEMBL1133279, “Aminoalkyl adenylate and aminoacyl sulfamate intermediate analogues differing greatly in affinity for their cognate Staphylococcus aureus aminoacyl tRNA synthetases” (Bioorg Med Chem Lett, 2000), this text covers inhibition for two molecules.

The inhibition is how much of the control response was suppressed. High values mean a response far below the control, low ones a response near the control.

Molecules are shown by their SMILES.

Experiment [1] deals with Threonyl-tRNA synthetase (Staphylococcus aureus). As to the kind of experiment: Inhibitory activity against cognate Staphylococcus aureus threonyl tRNA synthetase at 300 uM.
In experiment [2] the test system is Histidyl-tRNA synthetase (Staphylococcus aureus). Description: Inhibitory activity against cognate Staphylococcus aureus Histidyl-tRNA synthetase at 300 uM.

Molecule `C[C@@H](O)[C@H](N)COP(=O)(O)OC[C@H]1O[C@@H](n2cnc3c(N)ncnc32)[C@H](O)[C@@H]1O` displayed an inhibition in experiment [1] of 60%.

Molecule `Nc1ncnc2c1ncn2[C@@H]1O[C@H](COP(=O)(O)OC[C@@H](N)Cc2c[nH]cn2)[C@@H](O)[C@H]1O` returned an inhibition in experiment [2] of 20%.
